{"source": "patent US20030228402A1", "about": "“Compositions and methods for preservation of food” (priority 2002, published 2003)", "key": {"[1]": {"assay": "Solution and suspension levels of terpenes in water", "from_the_text": "The terpene and water were blended in a household blender for 30 seconds.\nExamples of these levels are as follows."}, "[2]": {"test_system": "E. coli strains AW574 or AW405", "assay": "Lysis of E. coli by terpenes (galactosidase activity, ONPG)", "type": "cell-based", "from_the_text": "Lysis of the cell membrane was monitored by the determination of galactosidase activity. B-galactosidase is a well-characterized cytosolic enzyme in bacteria. This enzyme is inducible in the presence of isopropyl-1-thiogalactosidase (IPTG) and assayed calorimetrically with substrate o-nitro-phenyl-B-D-galactoside (ONPG). ONPG is cleaved to release o-nitrophenol which has a peak absorbance at 420 nm.\nSince intact E. coli is impermeable to both ONPG and the enzyme, the cells have to be lysed prior to enzymatic assay. Therefore, the ability of terpenes to lyse E. coli can be measured with this enzymatic assay and compared to known lysing agents.\nThe procedure used was as follows: E. coli strains AW574 or AW405 were cultured overnight in 10 ml tryptone broth with […] at 35° C. Cells were allowed to grow after an absorbance equal to 0.9 was reached.\nCells were harvested, washed with phosphate buffer and resuspended to an absorbance equal to 0.5.\n0.1 ml of the bacteria culture was added to 0.9 ml of buffer, warmed to 30° C., and then 80 μl of terpenes (85% terpenes and 15% polysorbate-80), 80 μl water (background), or 40 μl chloroform plus 40 μl 1% SDS in water (positive control) were added.\nAfter the addition of the lysing agents the tubes were mixed for 10 seconds, and 0.2 ml of ONPG (4 mg/ml water) was added, then incubated for 5 minutes. The 5 enzyme activity was stopped with 0.5 ml of 1 M sodium carbonate. After being centrifuged for 3 minutes at 1,500×g, supernatant was transferred to cuvettes and read at 420 nm.\nThe relative degree of lysis caused by terpenes was calculated as follows: 100× (O.D. terpenes—O.D. water)/(O.D. chloroform—O.D. water)."}, "E. coli strain AW574": {"test_system": "E. coli strain AW574", "assay": "E. coli growth (O.D.) with single or combined terpenes", "type": "cell-based", "conditions": "single terpene 2 μMol; 24 hours", "experimental": "E. coli strain AW574 was grown in tryptone broth to an exponential growth phase (O.D. between 0.4 and 1.0 at 590 nm). One tenth of this growth was inoculated to 10 ml of tryptone broth followed by the addition of individual terpenes or as indicated on Table 8; then incubated for 24 hours at 35-37° C., and the O.D. determined in each tube. The concentration of terpenes was 1 or 2 μMol. Each treatment was repeated in triplicate. The results are expressed as percentage bacterial growth as compared to the control treatment.\nE. coli strain AW574 was grown in tryptone broth to an exponential growth phase (O.D. between 0.4 and 1.0 at 590 nm).\nOne tenth of this growth was inoculated to 10 ml of tryptone broth followed by the addition of individual terpenes or as indicated on Table 18; then incubated for 24 hours at 35-37° C. and the O.D. determined in each tube.\nThe concentration of terpenes was 1 or 2 μMol. Each treatment was repeated in triplicate.\nThe results are expressed as percentage bacterial growth as compared to the control treatment."}, "erythrocytes": {"test_system": "erythrocytes", "type": "cell-based", "conditions": "20 min", "experimental": "These mixtures were incubated for 20 minutes."}, "E. coli": {"test_system": "E. coli", "conditions": "cited from earlier work"}, "[3]": {"assay": "Break down of terpenes in the presence of oxygen / potency of solution", "type": "physicochemical", "conditions": "500 ppm solution", "from_the_text": "Terpenes will break down in the presence of oxygen. Citral, for example, is an aldehyde and will decay (oxygenate) over a period of days."}, "Mycoplasma pneumoniae": {"test_system": "Mycoplasma pneumoniae", "assay": "Killing of Mycoplasma pneumoniae, color change of SP4 medium", "type": "cell-based", "conditions": "for killing effect (color change of first tube): three days after the 10-fold dilution", "experimental": "This mixture was then used to make concentrations of 2500 ppm in sterile phosphate buffer saline (PBS) by blending the mixture in PBS for 40 seconds. […] PBS containing 25 ppm Tween® 80 or PBS alone was used to treat cells suspension as controls. […] After 40 hours of treatment, 10-fold serial dilution was performed to 10 (−10) by first taking 0.1 mL of the treated culture suspension was added into 0.9 mL of fresh SP4 (Whitcomb (1983); SP4 media is commercially available (Remel, Lenexa, Kans., USA)). All the tubes were then incubated at 37° C., and a color change of the medium was used for the indication of the cells that either were killed or survived from the treatment. Color change was from red to yellow because Mycoplasma pneumoniae produces acid during its growth. All the treatments were performed in duplicate."}, "[4]": {"conditions": "62.5, 125 and 250 ppm, 40 hours treatment"}}, "note": "Like-named read-outs stand apart in the source and are kept apart here.", "data": [{"compound": "C=C(C)C1CC=C(C)C(=O)C1", "note": "(stereo not shown) [Carvone]", "values": [{"measurement": "Level (maximum level of terpene solubilized, solution level)", "setting": "[1]; true solution in water without surfactant, high shear mixing", "result": 500, "unit": "ppm"}, {"measurement": "Relative lysis %", "setting": "[2]; 404 μM", "result": 3.2, "unit": "%"}, {"measurement": "Relative lysis %", "setting": "[2]; 4,040 μM", "result": 22, "unit": "%"}, {"measurement": "Relative lysis %", "setting": "[2]; 40,400 μM", "result": 54, "unit": "%"}, {"measurement": "% growth (bacterial growth as compared to the control treatment)", "setting": "E. coli strain AW574", "result": 63.00, "unit": "%"}]}, {"compound": "CC(C)=CCCC(C)=CC=O", "note": "[Citral, 3,7-dimethyl-2,6-octadien-1-al]", "values": [{"measurement": "concentration that will lyse human erythrocytes", "setting": "erythrocytes", "result": "approximately 1000 ppm"}, {"measurement": "citral in growth media with bactericidal effect", "setting": "E. coli", "result": 0.08, "unit": "%"}, {"measurement": "time in which the solution will lose half its potency", "setting": "[3]", "result": "2-3 weeks"}]}, {"compound": "CC(C)=CCC/C(C)=C/CO", "note": "[Geraniol]", "values": [{"measurement": "Level (maximum level of terpene solubilized, solution level)", "setting": "[1]", "result": 500, "unit": "ppm"}, {"measurement": "Relative lysis %", "setting": "[2]; 3.63 μM", "result": 2.4, "unit": "%"}, {"measurement": "Relative lysis %", "setting": "[2]; 36.3 μM", "result": 4, "unit": "%"}, {"measurement": "Relative lysis %", "setting": "[2]; 363 μM", "result": 34, "unit": "%"}, {"measurement": "Relative lysis %", "setting": "[2]; 3,630 μM", "result": 98, "unit": "%"}, {"measurement": "Relative lysis %", "setting": "[2]; 36,300 μM", "result": 96, "unit": "%"}, {"measurement": "% growth (bacterial growth as compared to the control treatment)", "setting": "E. coli strain AW574", "result": 54.00, "unit": "%"}]}, {"compound": "CC(=O)/C=C/C1=C(C)CCCC1(C)C", "note": "[b-ionone]", "values": [{"measurement": "Level (maximum level of terpene solubilized, solution level)", "setting": "[1]", "result": 500, "unit": "ppm"}, {"measurement": "Relative lysis %", "setting": "[2]; 0.0308 μM", "result": 1.3, "unit": "%"}, {"measurement": "Relative lysis %", "setting": "[2]; 0.308 μM", "result": 4.78, "unit": "%"}, {"measurement": "Relative lysis %", "setting": "[2]; 3.08 μM", "result": 23, "unit": "%"}, {"measurement": "Relative lysis %", "setting": "[2]; 30.8 μM", "result": 44, "unit": "%"}, {"measurement": "Relative lysis %", "setting": "[2]; 308 μM", "result": 52, "unit": "%"}, {"measurement": "killing effect (color change of first tube)", "setting": "Mycoplasma pneumoniae; [4]", "result": "killing effect"}, {"measurement": "tubes of the 10-fold dilution series that changed color", "setting": "Mycoplasma pneumoniae; 62.5 ppm, 6 days after the 10-fold dilution", "result": "only the first tube"}, {"measurement": "killing of all cells", "setting": "Mycoplasma pneumoniae; 125 and 250 ppm, 40 hours treatment, 6 days after the 10-fold dilution", "result": "may have completely killed all cells"}, {"measurement": "% growth (bacterial growth as compared to the control treatment)", "setting": "E. coli strain AW574", "result": 84.00, "unit": "%"}]}, {"compound": "L-carvone", "values": [{"measurement": "killing effect (color change of first tube)", "setting": "Mycoplasma pneumoniae; [4]", "result": "no killing effects"}, {"measurement": "tubes of the 10-fold dilution series that changed color", "setting": "Mycoplasma pneumoniae; 62.5, 125 and 250 ppm, 6 days after the 10-fold dilution", "result": "second and third tube"}]}, {"compound": "Terpeniol", "values": [{"measurement": "Level (maximum level of terpene solubilized, solution level)", "setting": "[1]", "result": 500, "unit": "ppm"}]}]}
